# According to publication PMC9132415, “Identification of 1H-pyrazolo[3,4-b]pyridine derivatives as novel and potent TBK1 inhibitors: design, synthesis, biological evaluation, and molecular docking study” (Journal of Enzyme Inhibition and Medicinal Chemistry, 2022):
# How the values were obtained:
# [1] = system: ifnb and cxcl10 gene expression in RAW264.7 cells; test: mRNA detection of TBK1 downstream genes (RT-PCR), LPS-stimulated RAW264.7 cells; assay type: cell-based; conditions: LPS-stimulated murine RAW264.7 cells
# [2] = Cytotoxicity to normal cells; assay type: cell-based; conditions: human, human umbilical vein endothelial cells (HUVECs)
# Source text: Figure S1. The cytotoxicity of compound 15y on Human Umbilical Vein Endothelial Cells
# (HUVECs). Data are representative of 3 independent experiments and are shown in mean ± SD
# value. Nolin fit 4-parameters model were used to fit the curve and to calculate IC50 values by
# (1 picture or pasted object on this page, not shown here)
# [3] = system: A172 cells; test: Antiproliferative activity, SRB staining; assay type: cell-based; conditions: Homo sapiens, A 172, glioma cell line, 72 h
# Procedure: (§1) A172, U87MG, A375, A2058, and Panc0504 cell lines were obtained from ATCC and cultured in indicated medium according to ATCC’s instructions. Cells were seeded in 96 well-plates at a destiny of around 2000 cells per well one day prior to administrated to increasing doses of indicated compounds. After 72 h of treatment, cells were washed with PBS and were fixed by 10% trichloroacetic acid before stained by sulphorhodamine B (SRB) solution. Unstained SRB were washed away by 1% acetic acid to reduce background signals. A Tris-based solution (10 mM) were used to dissolve stained SRB and the absorbance at 540 nm was measured with SpectraMax Paradigm (Molecular Devices). Inhibition rate was calculated by the relative absorbance value of test compound wells with the average of control wells […].
# [4] = system: A375 cells; test: Antiproliferative activity, SRB staining; assay type: cell-based; conditions: Homo sapiens, A-375, melanoma cell line, 72 h
# Procedure: as §1
# [5] = system: A2058 cells; test: Antiproliferative activity, SRB staining; assay type: cell-based; conditions: Homo sapiens, melanoma cell line, 72 h
# Procedure: as §1
# [6] = system: U87MG cells; test: Antiproliferative activity, SRB staining; assay type: cell-based; conditions: Homo sapiens, U-87 MG, glioma cell line, 72 h
# Procedure: as §1
# [7] = system: Panc0504 cells; test: Antiproliferative activity, SRB staining; assay type: cell-based; conditions: Panc 05.04, pancreatic cell line, 72 h
# Procedure: as §1
# [8] = system: ifnb and cxcl10 gene expression in THP-1 cells; test: mRNA detection of TBK1 downstream genes (RT-PCR), poly(I:C)-stimulated THP-1 cells; assay type: cell-based, human; conditions: compound at 1 µM
smiles,measurement,setting,value
Cc1nc2c(F)cc(-c3n[nH]c4ncc(-c5cccc(S(N)(=O)=O)c5)cc34)cc2n1C(C)C [Compound 15y],inhibition of ifnb and cxcl10 expression,[1],profound activity
same,IC50,[2],21200 nM
same,IC50,[3],1400 nM
same,IC50,[4],3100 nM
same,IC50,[5],900 nM
same,IC50,[6],2400 nM
same,IC50,[7],3600 nM
same,inhibition of cxcl10 expression,[8],> 93%
same,inhibition of ifnb expression,[8],> 93%
